# Measurements from patent publication US5053336A, “Monoclonal antibodies for the separate detection of halodeoxyuridines and method for their use” (Regents of the University of California, priority 1989, dated 1991).
# Test system: monoclonal antibody Br-3 (IgG1, kappa; hybridoma ATCC deposit)
# Test: competition ELISA (c-ELISA), specificity of antibody for halogenated deoxyuridines
# Format: binding, mouse (SJL/Jax)
# Text: A competition enzyme-linked immunosorbent assay (c-ELISA) wa developed to assess the specificity of the antibody for halogenated deoxyuridines by the method of Stanker, et al. (1986) described previously. The competition ELISA data was normalized using 100% activity as the optical density in wells in which antibody was bound to the solid phase antigen (BSA-hapten) in the absence of any competitor. The test wells, each containing different amounts of competitor, were normalized to the 100% activity wells. Percent inhibition was calculated by subtracting the normalized percent binding activity from 100. A smaller I50 value indicates a higher relative affinity of the antibody for the compound. I50 values were estimated graphically from competition ELISA data. When 50% inhibition could not be attained, the value of the highest level of competitor tested is reported. Competition binding data for antibodies reactive with brominated nucleoside analogs are shown in FIG. 1, and the values represent the averages from at least 12 independent assays.
# The concentration of IdUMP which causes a 50% binding inhibition to monoclonal antibody Br-3 is 100 times greater for IdUMP than with BrdUMP.
smiles,measurement,setting,value
"O=c1[nH]c(=O)n([C@H]2C[C@H](O)[C@@H](COP(=O)(O)O)O2)cc1I [IdUMP, 5-iodo-2'-deoxyuridine-5-monophosphate]","concentration which causes a 50% binding inhibition (I50), relative to BrdUMP","I50 of IdUMP compared with I50 of BrdUMP, FIG. 1, averages of at least 12 assays",100 times
"Cc1cn([C@H]2C[C@H](O)[C@@H](COP(=O)(O)O)O2)c(=O)[nH]c1=O [dTMP, deoxythymidine-5-monophosphate]",IC50,"50% inhibition not attained at the highest level of competitor tested, read-out: concentration for 50% binding inhibition (I50)",> 100 µM
"O=c1[nH]c(=O)n([C@H]2C[C@H](O)[C@@H](COP(=O)(O)O)O2)cc1F [fluorinated deoxyuridine analog, 5-fluoro-2'-deoxyuridine-5-monophosphate]",Br-3 binding (competition ELISA),"compared with the iodinated analog, FIG. 1",comparable to that of the iodinated analog
